Values quoted from earlier work, collected in publication PMC6530907 (Biochemistry, 2019).

Molecular target: YbtE
Settings: cited from earlier work

For `Nc1ncnc2c1ncn2[C@@H]1O[C@H](COS(=O)(=O)NC(=O)c2ccccc2O)[C@@H](O)[C@H]1O` [compound 1, 5´-O-[N-salicylsulfamoyl]adenosine], the Ki is listed as 0.7 nM.
